26 molecules from patent publication US20240092745A1, “DRUGS AND COMPOSITIONS FOR THE TREATMENT OF OCULAR DISORDERS” (Graybug Vision, Inc., priority 2017, published 2024) can be followed below.

A short description of the data set: Determination of drug solubility in aqueous and organic solvent.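 As to all read-outs here: solid drug suspended at 50 mg/mL nominal in each solvent, vortexed and sonicated, then dissolved concentration in filtered supernatant quantified by HPLC against a calibration curve.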 The class given is physicochemical. Conditions: for solubility: thermodynamic from solid.
Where [1] appears, read: organic solvent or mixture, Table 3B, DMSO, read-out: Solubility DMSO.
Setting [2] is: Table 3B, water, drug added to 50 mg/mL, read-out: Solubility Water.
Where [3] appears, read: organic solvent or mixture, Table 3A, DMSO, read-out: Solubility DMSO.
Where [4] appears, read: Table 3A, water, drug added to 50 mg/mL, read-out: Solubility Water.
[5] abbreviates: Table 3B, water, drug added to 50 mg/mL.
The mark [6] stands for this setting: organic solvent or mixture, Table 3A, DCM, read-out: Solubility DCM.

In brackets after ≈: the same amount, converted by molar mass. Where a name gives a salt, the structure may show the parent alone. Read-outs that look alike come from different tables or passages of the source. A value given as a limit tells only on which side of the number the result lay.

Description: For each test, approximately 5-10 mg was transferred to a 10 mL glass vial. Aqueous or organic solvent was added to each vial to achieve an overall concentration of 50 mg/mL. After vortexing aggressively for 2-3 minutes and sonicating in a bath sonicator for 5 minutes, undissolved drug was spun down at 1200 rpm for 5 minutes to generate a pellet. The supernatant was collected and filtered through a 0.2 μm nylon syringe filter into HPLC vials for drug content analysis. Drug concentration was determined by comparing against a standard calibration curve.

A word on the solubility: it is how much of the substance goes into solution per volume. As to `COc1cccc(CN(CCOC(=O)[C@H](C)OC(=O)[C@H](C)OC(=O)[C@H](C)OC(=O)[C@H](C)OC(C)=O)C(=O)Nc2ccc(-c3cnn(C(=O)[C@H](C)OC(=O)[C@H](C)OC(=O)[C@H](C)OC(=O)[C@H](C)OC(C)=O)c3)cc2)c1` [Compound 113-1, SR5834-bis-acetyl PLA(n=4)], the solubility reads like this: under setting [1], 50 mg/mL (≈ 48.7 mM); under setting [2], < 1 mg/mL.
Regarding `CC(=O)O[C@@H](C)C(=O)O[C@@H](C)C(=O)O[C@@H](C)C(=O)N1CCN=C1Nc1ccc2nccnc2c1Br` [Compound 26-2, (S)-2-((S)-2-Acetoxy-propionyloxy)-propionic acid (S)-2-[2-(5-bromo-quinoxalin-6-ylamino)-4,5-dihydro-imidazol-1-yl]-1-methyl-2-oxo-ethyl ester], the solubility under setting [3] is > 50 mg/mL and the solubility under setting [4] is < 1 mg/mL.
Consider `CCN[C@H]1CN(CCCOC)S(=O)(=O)c2sc(S(N)(=O)=O)cc21` [Brinzolamide, reference compound], for which, for the setting “Table 3B, DCM”, the “Solubility DCM” value was <7.5 mg/mL. For the same molecule, where the note is “Table 3B, DMSO”, the “Solubility DMSO” value is reported as >50 mg/mL. Also, under setting [5], the “Solubility Water” value was <1.0 mg/mL. The solubility runs as follows: under setting [6], < 7.5 mg/mL; under setting [3], > 50 mg/mL; under setting [4], < 1 mg/mL.
As for `CC(=O)O[C@@H](C)C(=O)O[C@@H](C)C(=O)N1CCN=C1Nc1ccc2nccnc2c1Br` [Compound 25-2, (S)-2-Acetoxy-propionic acid (S)-2-[2-(5-bromo-quinoxalin-6-ylamino)-4,5-dihydro-imidazol-1-yl]-1-methyl-2-oxo-ethyl ester], the solubility runs as follows: under setting [3], > 50 mg/mL; under setting [4], < 1 mg/mL.
As for `COc1cccc(CN(CCO)C(=O)Nc2ccc(-c3cn[nH]c3)cc2OCCN2CCCC2)c1` [RKI-H-1y, 1-(2-hydroxyethyl)-1-[(3-methoxyphenyl)methyl]-3-[4-(1H-pyrazol-4-yl)-2-[2-(pyrrolidin-1-yl)ethoxy]phenyl]urea, reference compound], the solubility by setting is: under setting [1], > 100 mg/mL; under setting [2], < 1 mg/mL.
For the molecule `CC(=O)OC(C)C(=O)OC(C)C(=O)OC(C)C(=O)OC(C)C(=O)N1CCN(C(C)=O)C1=Nc1ccc2nccnc2c1Br` (stereo not shown) [Compound 115-1, Brimonidine-acetyl PLA(n=4)-N-Acetate], the solubility under setting [3] amounted to 100 mg/mL (≈ 150 mM) and the solubility under setting [4] was < 0.2 mg/mL.
Consider `COc1cccc(CN(CCOC(=O)[C@H](C)OC(=O)[C@H](C)OC(=O)[C@H](C)OC(=O)[C@H](C)OC(C)=O)C(=O)Nc2ccc(-c3cn[nH]c3)cc2)c1` [Compound 88-3, SR5834-acetyl PLA(n=4)], for which, under setting [1], the solubility was > 50 mg/mL.
`CC(=O)O[C@@H](C)C(=O)O[C@@H](C)C(=O)O[C@@H](C)C(=O)O[C@@H](C)C(=O)N1CCN(C(=O)[C@H](C)OC(=O)[C@H](C)OC(=O)[C@H](C)OC(=O)[C@H](C)OC(C)=O)C1=Nc1ccc2nccnc2c1Br` [Compound 116-1, Brimonidine-bis-acetyl PLA(n=4)]: under setting [3], the solubility was found to be 100 mg/mL (≈ 105 mM).
As usually defined, the aqueous solubility is the concentration that dissolves in the medium under given conditions. A higher aqueous solubility goes with much dissolved substance. Regarding `CCCCCCCCCCCCCCCCCC(=O)O[C@@H](C)C(=O)O[C@@H](C)C(=O)O[C@@H](C)C(=O)O[C@@H](C)C(=O)O[C@@H](C)C(=O)O[C@@H](C)C(=O)O[C@@H](CNC(C)(C)C)COc1nsnc1N1CCOCC1.Cl` [Compound 43-1, Octadecanoic acid (5)-1-((S)-1-{(S)-1-[(S)-1-((S)-1-{(S)-1-[(S)-1-(tert-butylamino-methyl)-2-(4-morpholin-4-yl-[1,2,5]thiadiazol-3-yloxy)-ethoxycarbonyl]-ethoxycarbonyl}-ethoxycarbonyl)-ethoxycarbonyl]-ethoxycarbonyl}-ethoxycarbonyl)-ethyl ester hydrochloride], the “Solubility DMSO” value (Table 3A, DMSO) is >50 mg/mL. Also, the “Solubility Water” value (Table 3A, water, drug added to 50 mg/mL) is on record as 6.25 mg/mL. The molecule also came in with an aqueous solubility (aqueous solution) of 6.25 mg/mL.
Take `CC(=O)N(C[C@@H](COc1nsnc1N1CCOCC1)OC(=O)[C@H](C)OC(=O)[C@H](C)O)C(C)(C)C` [Compound 69-1]: the solubility is, setting by setting: under setting [1], > 100 mg/mL; under setting [2], < 6.3 mg/mL.
`CC(C)OC(=O)CCC/C=C\C[C@@H]1[C@@H](CC[C@@H](O)CCc2ccccc2)[C@H](O)C[C@@H]1O` [Latanoprost, reference compound]: the solubility reads like this: under setting [6], > 50 mg/mL; under setting [3], > 50 mg/mL; under setting [4], < 1 mg/mL.
“N-acyl-Timolol-PLA (n = 2)-DHA [N-Acyl-Timolol-PLA (n = 2) DHA]”: the “Solubility DMSO” value (Table 3B, DMSO) is on record as >100 mg/mL. Further, the “Solubility Water” value under setting [5] is <1.0 mg/mL.
For the molecule `CC(C)(C)NC[C@@H](COc1nsnc1N1CCOCC1)OC(=O)CCCCCCCCC(=O)O[C@@H](CNC(C)(C)C)COc1nsnc1N1CCOCC1.O=C(O)/C=C\C(=O)O` [Compound 75-1, Timolol-Sebacic Acid-Timolol Maleate], the solubility was > 100 mg/mL under setting [1] and < 1 mg/mL under setting [2].
With `CC(=O)O[C@@H](C)C(=O)O[C@@H](C)C(=O)N1CCN(C(=O)[C@H](C)OC(=O)[C@H](C)OC(C)=O)C1=Nc1ccc2nccnc2c1Br` [Compound 111-4, Brimonidine-bis-acetyl PLA(n=2)], the solubility runs as follows: under setting [3], > 50 mg/mL; under setting [4], < 1 mg/mL.
`CC(=O)OC(C)C(=O)OC(C)C(=O)OC(C)C(=O)OC(C)C(=O)O[C@H](COc1nsnc1N1CCOCC1)CN(C(=O)C(C)OC(=O)C(C)OC(C)=O)C(C)(C)C` (stereo partly shown) [Compound 230, Timolol-bis-N-acetyl-PLA(n=2)-O-acetyl PLA(n=4)]: the solubility under setting [1] was > 50 mg/mL and the solubility under setting [2] was < 0.007 mg/mL.
For `CCCCC/C=C\C/C=C\CCCCCCCC(=O)O[C@@H](CNC(C)(C)C)COc1nsnc1N1CCOCC1.Cl` [Compound 71-1, Timolol-O-Linoleic Acid-HCl], in that order: > 50 mg/mL and > 25 mg/mL.
For `CC(C)(C)NC[C@@H](COc1nsnc1N1CCOCC1)OC(=O)/C=C/C(=O)O[C@@H](CNC(C)(C)C)COc1nsnc1N1CCOCC1.O=C(O)/C=C\C(=O)O.O=C(O)/C=C\C(=O)O` [Compound 78-1, Timolol-fumurate-Timolol-maleate], in that order: > 100 mg/mL and < 1 mg/mL.
For the molecule `CC(C)(C)NC[C@@H](COc1nsnc1N1CCOCC1)OC(=O)OC(C)(C)C` [Compound 36-2, Carbonic acid tert-butyl ester (S)-1-(tert-butylamino-methyl)-2-(4-morpholin-4-yl-[1,2,5]thiadiazol-3-yloxy)-ethyl ester], the solubility under setting [3] is > 50 mg/mL and the solubility under setting [4] was < 1 mg/mL.
The corresponding values for `CCCCCCCCCCCCCCCCCC(=O)O[C@@H](C)C(=O)O[C@@H](C)C(=O)O[C@@H](C)C(=O)O[C@@H](C)C(=O)O[C@@H](C)C(=O)O[C@@H](C)C(=O)O[C@@H](CNC(C)(C)C)COc1nsnc1N1CCOCC1` [Compound 42-2, Octadecanoic acid (S)-1-((S)-1-{(S)-1-[(S)-1-((S)-1-{(S)-1-[(S)-1-(tert-butylamino-methyl)-2-(4-morpholin-4-yl-[1,2,5]thiadiazol-3-yloxy)-ethoxycarbonyl]-ethoxycarbonyl}-ethoxycarbonyl)-ethoxycarbonyl]-ethoxycarbonyl}-ethoxycarbonyl)-ethyl ester maleate] are > 50 mg/mL and < 1 mg/mL.
The corresponding values for `CC(=O)O[C@@H](C)C(=O)O[C@@H](C)C(=O)O[C@@H](C)C(=O)O[C@@H](C)C(=O)O[C@@H](C)C(=O)O[C@@H](C)C(=O)O[C@@H](C)C(=O)O[C@@H](C)C(=O)N1CCN=C1Nc1ccc2nccnc2c1Br` [Compound 109-1, Brimonidine-acetyl PLA(n=8)] are > 50 mg/mL and < 0.1 mg/mL.
Regarding `CCCCCCCCCCCCCCCCCC(=O)O[C@@H](C)C(=O)O[C@@H](C)C(=O)O[C@@H](C)C(=O)O[C@@H](C)C(=O)NS(=O)(=O)c1cc2c(s1)S(=O)(=O)C(C)CC2NCC` (stereo partly drawn) [Compound 12-3, Octadecanoic acid (S)-1-((S)-1-{(S)-1-[(S)-2-(4-ethylamino-6-methyl-7,7-dioxo-4,5,6,7-tetrahydro-7λ*6*-thieno[2,3-b]thiopyran-2-sulfonylamino)-1-methyl-2-oxo-ethoxycarbonyl]-ethoxycarbonyl}-ethoxycarbonyl)-ethyl ester], the solubility is, setting by setting: under setting [6], > 50 mg/mL; under setting [3], > 50 mg/mL; under setting [4], < 0.1 mg/mL.
For the molecule `COc1cccc(CN(CCO)C(=O)Nc2ccc(-c3cn[nH]c3)cc2)c1` [SR5834, 1-(2-hydroxyethyl)-1-[(3-methoxyphenyl)methyl]-3-[4-(1H-pyrazol-4-yl)phenyl]urea, reference compound], the solubility reads like this: under setting [1], > 100 mg/mL; under setting [2], < 1 mg/mL.
Take `CCN[C@H]1C[C@H](C)S(=O)(=O)c2sc(S(N)(=O)=O)cc21` [Dorzolamide, reference compound]: the “Solubility DCM” value (Table 3B, DCM) is <1.0 mg/mL. Also, the “Solubility DMSO” value (Table 3B, DMSO) is <1.0 mg/mL. For the same molecule, the “Solubility Water” value under setting [5] was >50 mg/mL. Further, the solubility is < 1 mg/mL under setting [6], < 1 mg/mL under setting [3] and > 50 mg/mL under setting [4].
In the case of `CC(C)(C)NC[C@@H](COc1nsnc1N1CCOCC1)OC(=O)CCCC(=O)O[C@@H](CNC(C)(C)C)COc1nsnc1N1CCOCC1.O=C(O)/C=C\C(=O)O` [Compound 77-1, Timolol-glutaric acid-Timolol-maleate], the solubility under setting [1] was > 100 mg/mL and the solubility under setting [2] was < 1 mg/mL.
For `CCN(CC)CCNC(=O)c1c(C)[nH]c(/C=C2\C(=O)Nc3ccc(N)cc32)c1C` [5-Amino Sunitinib, 5-[5-Amino-2-oxo-1,2-dihydro-indol-(3Z)-ylidenemethyl]-2,4-dimethyl-1H-pyrrole-3-carboxylic acid (2-diethylamino-ethyl)-amide, reference compound], the solubility is > 50 mg/mL under setting [3] and < 1 mg/mL under setting [4].
For `CC(=O)N(C[C@@H](COc1nsnc1N1CCOCC1)OC(=O)OC(C)(C)C)C(C)(C)C` [Compound 37-2, Timolol-O-Boc-N-acetate], in that order: > 50 mg/mL and < 1 mg/mL.
